Experimental data from patent publication US5124322A, “Dipeptide collagenase inhibitors” (Beecham Group p.l.c., priority 1988, dated 1992).
Like-named read-outs stand apart in the source and are kept apart here.

Target: T1, human lung fibroblast collagenase (Homo sapiens, UniProt P03956)
T1 construct: from culture supernatants from the human lung fibroblast cell line, WI-38; endogenous in cells; host or cells: WI-38 human lung fibroblast cell line (culture supernatant)
T1 sequence (P03956 100-469): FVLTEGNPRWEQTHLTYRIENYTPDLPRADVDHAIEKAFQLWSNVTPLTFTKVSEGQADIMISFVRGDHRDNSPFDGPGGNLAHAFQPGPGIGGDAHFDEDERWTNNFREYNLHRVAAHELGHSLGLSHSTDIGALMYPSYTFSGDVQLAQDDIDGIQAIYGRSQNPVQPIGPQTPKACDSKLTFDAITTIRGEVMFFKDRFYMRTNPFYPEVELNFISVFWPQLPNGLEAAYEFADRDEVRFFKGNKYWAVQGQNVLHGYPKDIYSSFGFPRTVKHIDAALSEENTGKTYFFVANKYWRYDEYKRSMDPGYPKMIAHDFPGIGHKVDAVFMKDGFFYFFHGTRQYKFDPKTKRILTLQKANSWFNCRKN
Assay: Collagenase inhibitor assay, human lung fibroblast collagenase (14C-collagen fibril degradation)
Format: biochemical
Settings: collagenase from WI-38 culture supernatants
Procedure: The test is performed essentially as in Cawston and Barrett, Anal. Biochem. 99, 340-345 (1979). Compounds for testing are dissolved in methanol and added to collagenase (purified from cultures of rabbit bone or from culture supernatants from the human lung fibroblast cell line, WI-38) in buffer. In order to ensure that thiol collagenase inhibitors remained unoxidised, β-mercaptoethanol may be incorporated in the methanol solvent and/or the diluent buffers. The minimal direct effect of β-mercaptoethanol on the degradation of collagen by human or rabbit collagenase is controlled for. After a 5-15 min pre-incubation at 37° C., the assay tubes are cooled to 4° C. and ^14 C-acetylated rat skin […] collagen is added. The assay tubes are incubated at 37° C. overnight. The ^14 C-collagen forms insoluble fibrils which are the substrate for the enzyme.
To terminate the assay, the assay tubes are spun at 12000 rpm for 15 min. Undigested ^14 C-collagen is pelleted, while digested ^14 C-collagen is found as soluble peptides in the supernatant. A sample of the supernatant is taken for liquid scintillation counting.
The activity of collagenase inhibitors (IC50 : 50% inhibitory concentration) is expressed as that concentration of compound that inhibits a known (standard) concentration of enzyme by 50%.

[1] = * = +mercaptoethanol, read-out: IC50, Inhibition of human lung fibroblast collagenase, +mercaptoethanol
[2] = without mercaptoethanol, read-out: IC50, Inhibition of human lung fibroblast collagenase

IC50 [1] [nM] | IC50 [2] [nM] | Compound
250 | 1800 | CNC(=O)[C@H](Cc1ccc(OC)cc1)NC(=O)C(Cc1ccc(Cl)cc1S)CC(C)C (stereo partly drawn) [Example 5, 4-Chloro-2-mercapto-N-[2-(4-methoxyphenyl)-1-(S)-(methylaminocarbonyl)ethyl]-α-(2-methylpropyl)phenylpropanamide]
190 | 1500 | 4-Chloro-2-mercapto-N-[2-(3-indolyl)-1-(S)-(methyl-aminocarbonyl)ethyl]-α-(2-methylpropyl)phenylpropanamide [Example 8]
